The text below walks through data of patent US11878966B2, “Substituted 4-benzyl and 4-benzoyl piperidine derivates” (89BIO LTD, priority 2015, dated 2024).

The structures appear in SMILES notation.

In this experiment the target is T1, recombinant human baculovirus-expressed GST-tagged FASN (Homo sapiens, UniProt P49327).
T1 construct: GST; host or cells: baculovirus expression system (insect cells implied)
T1 sequence (P49327 whole entry): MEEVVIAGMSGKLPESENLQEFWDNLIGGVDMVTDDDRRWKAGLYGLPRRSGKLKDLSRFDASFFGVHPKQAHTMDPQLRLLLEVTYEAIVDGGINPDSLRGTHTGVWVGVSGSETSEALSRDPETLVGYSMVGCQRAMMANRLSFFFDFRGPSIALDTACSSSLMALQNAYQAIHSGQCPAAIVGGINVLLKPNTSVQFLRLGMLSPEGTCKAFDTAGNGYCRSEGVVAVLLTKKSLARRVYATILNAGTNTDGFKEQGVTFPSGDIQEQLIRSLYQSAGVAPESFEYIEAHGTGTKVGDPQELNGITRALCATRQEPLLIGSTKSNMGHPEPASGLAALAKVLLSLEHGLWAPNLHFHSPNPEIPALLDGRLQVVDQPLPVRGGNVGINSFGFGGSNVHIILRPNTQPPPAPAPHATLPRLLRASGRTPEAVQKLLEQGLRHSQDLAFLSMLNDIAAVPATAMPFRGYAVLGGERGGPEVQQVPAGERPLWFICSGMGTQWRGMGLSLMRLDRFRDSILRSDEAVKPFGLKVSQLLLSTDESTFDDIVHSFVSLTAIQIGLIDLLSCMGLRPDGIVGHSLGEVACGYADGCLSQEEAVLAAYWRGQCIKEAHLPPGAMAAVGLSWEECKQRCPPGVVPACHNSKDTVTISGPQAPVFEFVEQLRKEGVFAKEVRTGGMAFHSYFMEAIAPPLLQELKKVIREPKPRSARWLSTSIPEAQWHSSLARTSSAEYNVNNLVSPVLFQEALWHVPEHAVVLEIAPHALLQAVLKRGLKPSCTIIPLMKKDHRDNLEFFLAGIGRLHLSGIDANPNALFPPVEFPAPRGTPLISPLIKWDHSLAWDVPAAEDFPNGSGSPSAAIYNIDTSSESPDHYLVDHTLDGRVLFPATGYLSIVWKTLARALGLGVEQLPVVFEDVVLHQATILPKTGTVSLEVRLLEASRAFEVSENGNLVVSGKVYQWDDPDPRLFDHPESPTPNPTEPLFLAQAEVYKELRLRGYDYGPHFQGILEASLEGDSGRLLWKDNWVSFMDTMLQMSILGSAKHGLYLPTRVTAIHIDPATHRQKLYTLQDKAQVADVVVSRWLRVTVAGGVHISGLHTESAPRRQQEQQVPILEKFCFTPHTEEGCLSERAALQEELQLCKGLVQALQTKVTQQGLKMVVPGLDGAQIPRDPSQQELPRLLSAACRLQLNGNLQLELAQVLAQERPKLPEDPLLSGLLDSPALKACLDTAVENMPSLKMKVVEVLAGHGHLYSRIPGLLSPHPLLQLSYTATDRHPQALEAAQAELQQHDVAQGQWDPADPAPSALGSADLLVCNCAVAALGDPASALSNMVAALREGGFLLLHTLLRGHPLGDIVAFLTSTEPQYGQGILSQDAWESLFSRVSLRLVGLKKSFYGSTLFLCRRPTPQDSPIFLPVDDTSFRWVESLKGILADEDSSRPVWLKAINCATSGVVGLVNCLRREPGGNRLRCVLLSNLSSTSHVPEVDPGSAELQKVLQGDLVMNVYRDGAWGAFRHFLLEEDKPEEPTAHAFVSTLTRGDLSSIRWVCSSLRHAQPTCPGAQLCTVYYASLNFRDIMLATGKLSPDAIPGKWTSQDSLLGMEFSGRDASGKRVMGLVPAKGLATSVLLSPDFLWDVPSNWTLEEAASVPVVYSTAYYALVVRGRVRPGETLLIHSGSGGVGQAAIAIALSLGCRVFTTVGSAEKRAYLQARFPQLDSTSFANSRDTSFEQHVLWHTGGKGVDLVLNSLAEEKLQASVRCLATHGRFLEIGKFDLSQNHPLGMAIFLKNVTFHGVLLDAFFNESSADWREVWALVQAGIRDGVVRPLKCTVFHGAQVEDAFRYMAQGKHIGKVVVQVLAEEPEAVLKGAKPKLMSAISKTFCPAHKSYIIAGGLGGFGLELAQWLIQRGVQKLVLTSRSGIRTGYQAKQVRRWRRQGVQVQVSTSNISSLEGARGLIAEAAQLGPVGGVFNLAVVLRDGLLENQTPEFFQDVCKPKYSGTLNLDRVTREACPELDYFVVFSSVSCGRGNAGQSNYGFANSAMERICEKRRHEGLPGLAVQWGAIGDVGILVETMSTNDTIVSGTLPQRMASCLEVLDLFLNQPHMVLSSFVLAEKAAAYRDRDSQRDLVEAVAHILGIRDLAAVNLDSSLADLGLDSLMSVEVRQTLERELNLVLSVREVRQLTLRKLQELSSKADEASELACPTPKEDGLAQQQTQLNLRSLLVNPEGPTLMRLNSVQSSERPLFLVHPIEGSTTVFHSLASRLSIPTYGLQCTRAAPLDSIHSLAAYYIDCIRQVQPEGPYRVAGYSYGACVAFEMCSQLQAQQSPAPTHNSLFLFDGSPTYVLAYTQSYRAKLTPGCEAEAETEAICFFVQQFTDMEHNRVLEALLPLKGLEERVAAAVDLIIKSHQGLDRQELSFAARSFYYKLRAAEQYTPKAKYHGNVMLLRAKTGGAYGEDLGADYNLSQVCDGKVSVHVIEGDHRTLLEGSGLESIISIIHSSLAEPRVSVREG
Put plainly: FASN enzyme activity assay: fluorescence-based detection of CoA with CPM. Type of experiment: biochemical. The conditions noted are these: 5 nM FASN, 150 μM NADPH, 10 μM acetyl-CoA, 25 μM malonyl-CoA, 90 minutes incubation. The gist of the method: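 GST-tagged human FASN (5 nM, baculovirus-expressed) in 50 mM HEPES pH 7.5 with 150 μM NADPH, 10 μM acetyl-CoA and 25 μM malonyl-CoA, 0.5% DMSO, started with malonyl-CoA and run 90 min. CoA was detected with CPM (30 min; ex 390/em 530 nm). IC50 came from sigmoidal variable-slope fits of % inhibition.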
As to `Cc1c(-c2ccc(CC3(F)CCN(C(=O)[C@H]4CCCO4)CC3)cc2)cnc2ccccc12` [Example 181, (R)-(4-fluoro-4-(4-(4-methylquinolin-3-yl)benzyl)piperidin-1-yl)(tetrahydrofuran-2-yl)methanone], the IC50 is 1 to 99 nM.

For the compound `O=C(C1CC1)N1CCC(F)(Cc2ccc(-c3ccc4cnccc4c3)cc2)CC1` [Example 175, Cyclopropyl(4-fluoro-4-(4-(isoquinolin-6-yl)benzyl)piperidin-1-yl)methanone], the IC50 lay within 1 to 99 nM.

In the case of `Cc1c(-c2ccc(CC3=CCN(C(=O)[C@H]4CCCO4)CC3)cc2)ccc2cccnc12` [Example 200, (R)-(4-(4-(8-methylquinolin-7-yl)benzyl)-3,6-dihydropyridin-1(2H)-yl)(tetrahydrofuran-2-yl)methanone], the IC50 lay in the range of 1 to 99 nM.

Regarding `CCC(=O)N1CCC(C(C)c2ccc(-c3ccc4cccnc4c3)cc2)CC1` (stereo not shown) [Example 42, 1-{4-[1-(4-Quinolin-7-yl-phenyl)-ethyl]-piperidin-1-yl}-propan-1-one], the IC50 fell in the range of 1 to 99 nM.

In the case of `CCC(=O)N1CCC(C(C)c2ccc(-c3ccc4cccnc4c3C)cc2)CC1` (stereo not shown) [Example 62, 1-(4-{1-[4-(8-methylquinolin-7-yl)-phenyl]-ethyl}-piperidin-1-yl)-propan-1-one], the IC50 is 1 to 99 nM.

As to `O=C(C1CC1)N1CCC(Cc2ccc(-c3cc4ccccc4cn3)cc2)CC1` [Example 27, Cyclopropyl-[4-(4-isoquinolin-3-yl-benzyl)-piperidin-1-yl]-methanone], the IC50 lay within 1000 to 10000 nM.

As for `Cc1nccc2cc(-c3ccc(CC4CCN(C(=O)[C@H]5CCCO5)CC4)cc3)ccc12` [Example 37, {4-[4-(1-methylisoquinolin-6-yl)-benzyl]-piperidin-1-yl}-(R)-tetrahydro-furan-2-yl-methanone], the IC50 lay within 1 to 99 nM.

Regarding `Cc1c(-c2ccc(CC3CCN(C(=O)C4(O)CC4)CC3)cc2)ccc2nccn12` [Example 96, (1-Hydroxycyclopropyl)-{4-[4-(5-methylimidazo[1,2-a]pyridin-6-yl)-benzyl]-piperidin-1-yl}-methanone], the IC50 lay in the range of 1 to 99 nM.

As for `CCC(OC)(c1ccc(-c2ccc3cccnc3c2)cc1)C1CCN(C(=O)C2CC2)CC1` (stereo not shown) [Example 217, Cyclopropyl-{4-[1-methoxy-1-(4-quinolin-7-yl-phenyl)-propyl]-piperidin-1-yl}-methanone], the IC50 is 1000 to 10000 nM.

For `O=C(C1CCCO1)N1CC=C(Cc2ccc(-c3cnc4ccccc4c3)cc2)CC1` (stereo in doubt) [Example 190, (R)-(4-(4-(quinolin-3-yl)benzyl)-5,6-dihydropyridin-1(2H)-yl)(tetrahydrofuran-2-yl)methanone], the IC50 fell in the range of 1 to 99 nM.

Regarding `CCONC(=O)N1CCC(Cc2ccc(-c3ccc4cccnc4c3C)cc2)CC1` [Example 232, N-ethoxy-4-[[4-(8-methyl-7-quinolyl)phenyl]methyl]piperidine-1-carboxamide], the IC50 was in the range of 1 to 99 nM.

As to `O=C(C1CC1)N1CC=C(Cc2ccc(-c3cnc4ccccc4c3)cc2)CC1` [Example 172, Cyclopropyl(4-(4-(quinolin-3-yl)benzyl)-5,6-dihydropyridin-1(2H)-yl)methanone], the IC50 is 100 to 999 nM.

Consider `CCC(=O)N1CCC(C(C)(O)c2ccc(-c3ccc4cnccc4c3)cc2F)CC1` (stereo not shown) [Example 132, 1-{4-[1-(2-Fluoro-4-isoquinolin-6-yl-phenyl)-1-hydroxy-ethyl]-piperidin-1-yl}-propan-1-one], for which the IC50 was in the range of 1 to 99 nM.

For the compound `CCC(=O)N1CCC(F)(C(=O)c2ccc(-c3ccc4cccnc4c3C)cc2)CC1` [Example 222, 1-{4-Fluoro-4-[4-(8-methylquinolin-7-yl)-benzoyl]-piperidin-1-yl}-propan-1-one], the IC50 is 1000 to 10000 nM.

Turning to `CC(C)C(=O)N1CCC(C(O)c2ccc(-c3ccc4ncccc4c3)cc2)CC1` (stereo not shown) [Example 110, 1-{4-[Hydroxy-(4-quinolin-6-yl-phenyl)-methyl]-piperidin-1-yl}-2-methyl-propan-1-one], the IC50 was in the range of 1000 to 10000 nM.

For the compound `CCC(=O)N1CCC(C(=O)c2ccc(-c3ccc4cccnc4c3)cc2)CC1` [Example 124, 1-[4-(4-Quinolin-7-yl-benzoyl)-piperidin-1-yl]-propan-1-one], the IC50 lay in the range of 1000 to 10000 nM.

For `Cc1nccc2cc(-c3ccc(C4(C5CCN(C(=O)[C@H]6CCCO6)CC5)CC4)cc3)ccc12` [Example 78, (4-{1-[4-(1-Methylisoquinolin-6-yl)-phenyl]-cyclopropyl}-piperidin-1-yl)-(R)-tetrahydrofuran-2-yl-methanone], the IC50 was 1000 to 10000 nM.

In the case of `CCC(=O)N1CCC(C(=O)c2c(F)cc(-c3ccc4cnccc4c3)cc2F)CC1` [Example 138, 1-[4-(2,6-Difluoro-4-isoquinolin-6-yl-benzoyl)-piperidin-1-yl]-propan-1-one], the IC50 lay within 100 to 999 nM.

Regarding `Cc1c(-c2ccc(CC3CCN(C(=O)[C@H]4CCCO4)CC3)cc2)cnc2ccccc12` [Example 15, {4-[4-(4-Methylquinolin-3-yl)-benzyl]-piperidin-1-yl}-(R)-tetrahydrofuran-2-yl-methanone], the IC50 lay in the range of 1 to 99 nM.

As for `Cc1c(-c2ccc(CC3CCN(C(=O)[C@H]4CCCO4)CC3)cc2)ccc2cccnc12` [Example 25, {4-[4-(8-Methylquinolin-7-yl)-benzyl]-piperidin-1-yl}-(R)-tetrahydrofuran-2-yl-methanone], the IC50 lay within 1 to 99 nM.

Regarding `O=C([C@H]1CCCO1)N1CCC(C(F)c2ccc(-c3cnc4ccccc4c3)cc2)CC1` (stereo partly drawn) [Example 8, {4-[Fluoro-(4-quinolin-3-yl-phenyl)-methyl]-piperidin-1-yl}-(R)-tetrahydro-furan-2-yl-methanone], the IC50 was 1 to 99 nM.

Regarding `CCC(=O)N1CCC(C(C)c2ccc(-c3cnc4ccccc4c3)cc2)CC1` (stereo not shown) [Example 39, 1-(4-(1-(4-(quinolin-3-yl)phenyl)ethyl)piperidin-1-yl)propan-1-one], the IC50 fell in the range of 1 to 99 nM.

As for `Cc1c(-c2ccc(C(OCCN3CCCC3)C3CCN(C(=O)[C@H]4CCCO4)CC3)cc2)ccc2cccnc12` (stereo partly drawn) [Example 89, {4-[[4-(8-Methylquinolin-7-yl)-phenyl]-(2-pyrrolidin-1-yl-ethoxy)-methyl]-piperidin-1-yl}-(R)-tetrahydrofuran-2-yl-methanone], the IC50 is 1 to 99 nM.

Take `CC(c1ccc(-c2cnc3ccccc3c2Cl)cc1)C1CCN(C(=O)[C@H]2CCCO2)CC1` (mixture of isomers) [Example 77, (4-{1-[4-(4-Chloroquinolin-3-yl)-phenyl]-ethyl}-piperidin-1-yl)-(R)-tetrahydrofuran-2-yl-methanone]: the IC50 was in the range of 1 to 99 nM.

As for `COCCOC(c1ccc(-c2ccc3c(C)nccc3c2)cc1)C1CCN(C(=O)[C@H]2CCCO2)CC1` (mixture of isomers) [Example 82, (4-{(2-Methoxyethoxy)-[4-(1-methylisoquinolin-6-yl)-phenyl]-methyl}-piperidin-1-yl)-(R)-tetrahydrofuran-2-yl-methanone], the IC50 was in the range of 1 to 99 nM.

Regarding `CCC(=O)N1CC[C@@H](Cc2ccc(-c3cnc4ccccc4c3)cc2)[C@@H](F)C1` (relative stereo) [Example 221, 1-[cis-3-Fluoro-4-(4-quinolin-3-yl-benzyl)-piperidin-1-yl]-propan-1-one], the IC50 fell in the range of 1 to 99 nM.

For the compound `CCC(=O)N1CCC(Cc2ccc(-c3cnc4ccccc4c3)cc2)C(=O)C1` (stereo not shown) [Example 220, 1-Propionyl-4-(4-quinolin-3-yl-benzyl)-piperidin-3-one], the IC50 fell in the range of 100 to 999 nM.

On to `CCC(=O)N1CCC(C(C)(OC)c2ccc(-c3ccc4cccnc4c3)cc2)CC1` (stereo not shown) [Example 212, 1-{4-[1-Methoxy-1-(4-quinolin-7-yl-phenyl)-ethyl]-piperidin-1-yl}-propan-1-one], for which the IC50 is 1 to 99 nM.

Regarding `Cc1c(-c2ccc(C(C)C3CCN(C(=O)[C@H]4CCCO4)CC3)cc2)cnc2ccccc12` (mixture of isomers) [Example 71, (4-{1-[4-(4-Methylquinolin-3-yl)-phenyl]-ethyl}-piperidin-1-yl)-(R)-tetrahydrofuran-2-yl-methanone], the IC50 was 1 to 99 nM.

As to `O=C(NC1CCCC1)N1CCC(C2(c3ccc(-c4ccc5ncccc5c4)cc3)OCCO2)CC1` [Example 107, 4-[2-(4-Quinolin-6-yl-phenyl)-1,3-dioxolan-2-yl]-piperidine-1-carboxylic Acid Cyclopentylamide], the IC50 lay in the range of 1000 to 10000 nM.

Regarding `CCC(=O)N1CC=C(Cc2ccc(-c3cnc4ccccc4c3)cc2)CC1` [Example 162, 1-(4-(4-(quinolin-3-yl)benzyl)-5,6-dihydropyridin-1(2H)-yl)propan-1-one], the IC50 is 1 to 99 nM.

With `COc1c(-c2ccc(CC3CCN(C(=O)C4CC4)CC3)cc2)ccc2cccnc12` [Example 33, Cyclopropyl-{4-[4-(8-methoxyquinolin-7-yl)-benzyl]-piperidin-1-yl}-methanone], the IC50 was 1 to 99 nM.

As for `O=C(C1CC1)N1CC=C(Cc2ccc(-c3ccc4cccnc4c3)cc2)CC1` [Example 174], the IC50 fell in the range of 100 to 999 nM.

With `O=C(C1CC1)N1CC=C(Cc2ccc(-c3ccc4occc4c3)cc2)CC1` [Example 180, (4-(4-(benzofuran-5-yl)benzyl)-5,6-dihydropyridin-1(2H)-yl)(cyclopropyl)methanone], the IC50 was 1000 to 10000 nM.

Take `O=C(C1CC1)N1CCC(Cc2ccc(-c3cnc4ccccc4c3Cl)cc2)CC1` [Example 20, {4-[4-(4-Chloroquinolin-3-yl)-benzyl]-piperidin-1-yl}-cyclopropylmethanone]: the IC50 lay within 1 to 99 nM.

As to `CCC(=O)N1CCC(C2(c3ccc(-c4ccc5ccncc5c4)cc3)OCCO2)CC1` [Example 116, 1-{4-[2-(4-Isoquinolin-7-yl-phenyl)-1,3-dioxolan-2-yl]-piperidin-1-yl}-propan-1-one], the IC50 was in the range of 1000 to 10000 nM.

Turning to `CCC(=O)N1CCC(C(OCCOC)c2ccc(-c3ccc4cccnc4c3C)cc2)CC1` (stereo not shown) [Example 81, 1-(4-{(2-Methoxyethoxy)-[4-(8-methyl-quinolin-7-yl)-phenyl]-methyl}-piperidin-1-yl)-propan-1-one], the IC50 was 1 to 99 nM.
